This is an account of results in publication PMC12040169 (PLOS Biology, 2025).

By viability is commonly meant a read-out of living cells in per cent, often relative to untreated cells.

Each structure is given as a SMILES string.

The first series in a line: in vitro. To be noted: human, hela cells, % viability.
As to `Cc1cccc(C)c1NC(=O)CSCC(=O)Nc1ccc2ccccc2c1` [CBK263274], the viability at 28.5 h, 10 µM was determined as 94.2%.
On the same count and under the same terms, in the case of `Cc1oc(C(=O)O)cc1CSCc1cc(C(=O)O)oc1C` [CBK263275] it was 101%.
`CC(C)C(=O)NC(c1ccco1)c1ccc2cccnc2c1O` (centres unmarked) [CBK263277]: the viability at 28.5 h, 10 µM was determined as 96.5%.
For `O=C(CSc1nc2sc3c(c2c(=O)n1-c1ccccc1)CCCC3)NCCc1ccccc1` [CBK263280], the viability at 28.5 h, 10 µM came out at 93.7%.
Regarding `Cc1ccn2c(-c3csc(Nc4ccc(C(=O)O)cc4)n3)c(C)nc2c1` [CBK263283B], the viability at 28.5 h, 10 µM is 97.5%.
On the same count and under the same terms, in the case of `COc1ccc(CCN2C(=O)CC(C(=O)O)S/C2=N\c2ccc(Cl)cc2)cc1OC` (centres unmarked) [CBK263286] it was 93.9%; in that of `O=C(CSc1nnc(-c2ccccc2)[nH]1)c1cccc([N+](=O)[O-])c1` [CBK263287], 91%.
Same read-out and setting: as for `Cc1nc2sccn2c1-c1csc(Nc2cccc(C(=O)O)c2)n1` [CBK263291B], the figure is 91.9%.
On the same count and under the same terms, in the case of `CCOc1ccc(S(=O)(=O)N2CCSC2c2ccc(OC)c([N+](=O)[O-])c2)cc1` (centres unmarked) [CBK263293] it was 101%; in that of `Cc1nc2ncccn2c1-c1csc(Nc2ccc(S(N)(=O)=O)cc2)n1` [CBK263294B], 84.8%; in that of `COc1ccccc1OCCOc1ccc(/C=N/n2cnnc2)cc1` [CBK263295], 106%.
`Cc1nc(C)c(-c2csc(Nc3ncccn3)n2)s1` [CBK263297B]: the viability at 28.5 h, 10 µM stood at 87.4%.
Same read-out and setting: in the case of `O=C(CCCN1C(=O)c2cccc3cccc(c23)C1=O)N1CCN(C/C=C/c2ccccc2)CC1` [CBK263300C] it was 103%; in that of `COc1ccc(S(=O)(=O)N2CCN(CCN3C(=O)c4cccc5cccc(c45)C3=O)CC2)cc1[N+](=O)[O-]` [CBK263301], 102%.
Same read-out and setting: in the case of `Cc1ccn2c(-c3csc(Nc4ccc(S(N)(=O)=O)cc4)n3)c(C)nc2c1` [CBK263304B] it was 63.7%; in that of `CCCOc1ccc(C(C)=O)cc1CC(C(N)=O)C(N)=O` [CBK263309], 90.6%; in that of `CC1(C)Cc2nc3nc(SCC(=O)c4ccc(Br)cc4)n(-c4ccccc4)c(=O)c3cc2CO1` [CBK263310], 91%.
The same measure, in the same setting: as for `CN1CCN(Cc2c(O)ccc3c(=O)c(-c4ccc(Cl)cc4)coc23)CC1` [CBK263314], the figure is 102%; as for `COc1cccc(C(=O)N2CCN(C(=O)c3cccc(F)c3)CC2)c1OC` [CBK263316], 105%; as for `Cc1ccc(C(=O)C2=C(O)C(=O)N(CCCn3ccnc3)C2c2cccc([N+](=O)[O-])c2)cc1` (centres unmarked) [CBK263319], 115%.
In the case of `CC(=O)C1=C(O)C(=O)N(CCN2CCNCC2)C1c1cccc([N+](=O)[O-])c1` (centres unmarked) [CBK263320], the viability at 28.5 h, 10 µM was found to be 101%.
On the same count and under the same terms, as for `Cc1ccc(-n2c(C)cc(/C=N/NC(=O)c3ccc(CN4CCOCC4)cc3)c2C)cc1` [CBK263324], the figure is 86.8%; as for `O=C(N/N=C/c1ccc(O)cc1O)c1[nH]c2ccc([N+](=O)[O-])cc2c1-c1ccccc1` [CBK263328], 69.7%; as for `Cc1ccc(N(CC(=O)Nc2cccnc2)S(=O)(=O)c2ccc(F)cc2)cc1` [CBK263332], 93.8%.
`Cc1ccc(N(CC(=O)Nc2ccccc2F)S(=O)(=O)c2ccc(F)cc2)cc1` [CBK263333]: the viability at 28.5 h, 10 µM came out at 91.9%.
Same read-out and setting: as for `CS(=O)(=O)N(Cc1ccc(Cl)cc1)c1ccc(C(=O)Nc2cccnc2)cc1` [CBK263334], the figure is 95.3%; as for `O=C(CCCSc1nc2sc3c(c2c(=O)[nH]1)CCCC3)NCCO` [CBK263336], 90.9%.
Same read-out and setting: as for `N#Cc1ccccc1/C=N/NC(=O)COc1ccc(-c2cc(-c3ccccc3)c3cc(Cl)ccc3n2)cc1` [CBK263337], the figure is 89.1%.
The same measure, in the same setting: in the case of `COc1ccc2c(c1)-c1c(ss/c1=N\c1ccc(S(N)(=O)=O)cc1)C(C)(C)N2` [CBK263339] it was 88.7%; in that of `COc1ccc(CN2CCN(Cc3ccccc3[N+](=O)[O-])CC2)c(OC)c1` [CBK263340], 91%; in that of `O=C(Nc1ccc(Cl)c(Cl)c1)Nc1ccccc1C(=O)O` [CBK263344], 82%.
As for `O=C(Cc1ccc([N+](=O)[O-])cc1)Nc1cc(C(=O)O)cc(C(=O)O)c1` [CBK263345], the viability at 28.5 h, 10 µM is 100%.
The same measure, in the same setting: in the case of `Cc1sc(NC(=O)CN2CCOCC2)c(C(=O)c2ccccc2)c1C` [CBK263346] it was 109%.
On the same count and under the same terms, as for `COc1ccc(Br)cc1CN1CCN(Cc2cccc([N+](=O)[O-])c2)CC1` [CBK263347], the figure is 91.6%.
Take `CCOC(=O)c1c(NC(=O)CC2Sc3ccccc3NC2=O)sc(C)c1C` (centres unmarked) [CBK263349]: the viability at 28.5 h, 10 µM came out at 93.5%.
For the compound `CCOC(=O)CSc1nnc(-c2ccncc2)n1-c1ccccc1` [CBK263350], the viability at 28.5 h, 10 µM worked out at 92%.
For the compound `Cc1ccc(S(=O)(=O)N(CC(O)Cn2c3ccc(Cl)cc3c3cc(Cl)ccc32)c2ccccc2)cc1` (centres unmarked) [CBK263353], the viability at 28.5 h, 10 µM came out at 92.2%.
As to `Cc1cccc(C)c1OCC(=O)Nc1c[nH]c(=O)[nH]c1=O` [CBK263358], the viability at 28.5 h, 10 µM was determined as 46.2%.
For `COc1ccc(Br)cc1/C=N/NC(=O)CC1C(=O)NN=C1C` (centres unmarked) [CBK263359], the viability at 28.5 h, 10 µM came to 99.2%.
Take `O=C(O)c1cc(NC(=O)c2ccco2)cc(C(=O)O)c1` [CBK263360]: the viability at 28.5 h, 10 µM is 102%.
As for `COc1ccc(/C=C(/NC(=O)c2cccc([N+](=O)[O-])c2)C(=O)O)cc1OC` [CBK263362], the viability at 28.5 h, 10 µM was 97.1%.
The same measure, in the same setting: as for `O=C(COc1ccc(-c2cc(-c3ccccc3)c3cc(Cl)ccc3n2)cc1)N/N=C/c1ccc2ncccc2c1` [CBK263365], the figure is 95.8%; as for `CC(C)(C)c1ccc(OCc2nnc(Sc3nc4ccc([N+](=O)[O-])cc4s3)n2-c2ccccc2)cc1` [CBK263366], 105%; as for `O=C(C1=C(O)C(=O)N(Cc2cccnc2)C1c1ccc(Cl)cc1Cl)c1ccccc1` (centres unmarked) [CBK263367], 101%.
Still for that read-out and setting: as for `O=C1c2ccccc2C(=O)N1c1ccc2nc(SCc3nc4ccccc4[nH]3)sc2c1` [CBK263368], the figure is 95%; as for `COC(=O)c1c(NC(=O)COc2ccc(Br)cc2)sc2c1CCC2` [CBK263369], 89.9%.
On the same count and under the same terms, in the case of `COc1ccc(Cn2c(-c3ccc(OC)c(O)c3)nc3ccccc32)cc1O` [CBK263370] it was 108%; in that of `COc1ccc(S(=O)(=O)N2CCN(C(=O)COc3ccc4ccccc4c3)CC2)cc1` [CBK263371], 91.5%.
With `O=C(O)c1cccnc1SC1CC(=O)N(Cc2ccccc2)C1=O` (centres unmarked) [CBK263375], the viability at 28.5 h, 10 µM is 119%.
Take `CC(C)(C)c1cc(Br)ccc1OCC(=O)Nc1nc[nH]n1` [CBK263379]: the viability at 28.5 h, 10 µM stood at 96.1%.
Take `CCOC(=O)c1c(NC(=O)CC2Nc3ccccc3NC2=O)sc(C)c1C` (centres unmarked) [CBK263381]: the viability at 28.5 h, 10 µM was found to be 94.2%.
The same measure, in the same setting: as for `CCc1n[nH]c(C(=O)N/N=C/c2cccnc2)c1C` [CBK263386], the figure is 90.4%; as for `COc1ccc(N2C(=O)CC(Sc3ncccc3C(=O)O)C2=O)cc1` (centres unmarked) [CBK263387], 95.5%; as for `O=C(O)c1cc(NC(=O)c2ccco2)cc(NC(=O)c2ccco2)c1` [CBK263388], 91.8%.
The same measure, in the same setting: as for `O=C(N/N=C\c1ccccc1C(F)(F)F)c1ccc(=O)[nH]n1` [CBK263389], the figure is 100%.
Still for that read-out and setting: as for `CCc1ccc(/C=C2/SC(=S)N(CCC(=O)O)C2=O)cc1` [CBK263390], the figure is 120%; as for `Cc1ccc(S(=O)(=O)N(CCO)CC(O)Cn2c3ccc(Cl)cc3c3cc(Cl)ccc32)cc1` (centres unmarked) [CBK263392], 97.6%.
With `O=C(O)c1ccccc1-c1ccccc1C(=O)NCCc1ccccc1` [CBK263394], the viability at 28.5 h, 10 µM worked out at 113%.
For the compound `CCOc1ccc(NC(=O)c2ccc(S(=O)(=O)N(C)C)cc2)c([N+](=O)[O-])c1` [CBK263396], the viability at 28.5 h, 10 µM is 90.6%.
For `COc1ccc(-n2c(SCC(=O)c3ccccc3)nc(O)c(Cc3ccccc3)c2=O)cc1` [CBK263398], the viability at 28.5 h, 10 µM came to 97.7%.
On the same count and under the same terms, in the case of `COc1cc(CN2CCN(Cc3ccncc3)CC2)cc(OC)c1O` [CBK263401] it was 80.6%.
On the same count and under the same terms, as for `Cc1ccccc1CN1CCN(CC2CC3C=CC2C3)CC1` (centres unmarked) [CBK263402], the figure is 88%; as for `O=C(c1ccccc1F)N1CCN(C2CCN(Cc3ccccc3)CC2)CC1` [CBK263404], 93.3%.
As for `O=C(CSc1nnc(-c2ccccc2)c(-c2ccccc2)n1)Nc1ccc([N+](=O)[O-])cc1` [CBK263406], the viability at 28.5 h, 10 µM turned out to be 109%.
The same measure, in the same setting: in the case of `COc1cc(CN2CCN(C3CCCCC3)CC2)cc(OC)c1OC` [CBK263407] it was 99.1%; in that of `O=C(O)c1cc(S(=O)(=O)N2CCCCC2)c(Cl)cc1N1CCCCC1` [CBK263408], 93.5%.
Turning to `COc1cc2c(cc1NC(=O)c1ccc(C)c([N+](=O)[O-])c1)oc1ccccc12` [CBK263411], the viability at 28.5 h, 10 µM is 91.9%.

The same series, now with this note: human, hela cells, % viability, bulk resorufin, single well.
Take `CCOc1ccc(N2C(=O)/C(=C/c3ccc(Br)cc3)C(=O)NC2=S)cc1` [CBK263305]: the viability at 28.5 h, 10 µM was found to be 92.7%.
On the same count and under the same terms, as for `N#CC(CCN1CCOCC1)(c1ccccc1)c1ccccc1` [CBK263317], the figure is 90.5%; as for `CCc1ccc(N2C(=O)/C(=C/c3ccc(OCC(=O)O)c(Br)c3)C(=O)NC2=S)cc1` [CBK263325], 96.4%.
In the case of `CCN(CC)S(=O)(=O)c1ccc(N/C=C2/C(=O)NC(=O)N(c3ccccc3)C2=O)cc1` [CBK263372], the viability at 28.5 h, 10 µM came to 89.9%.
For the compound `O=C(O)COc1c(Cl)cc(C=C2C(=O)NC(=O)NC2=O)cc1Cl` [CBK263377], the viability at 28.5 h, 10 µM turned out to be 83%.
Turning to `O=C(O)COc1c(Cl)cc(/C=C2\C(=O)NC(=S)N(c3ccc(F)cc3)C2=O)cc1Cl` [CBK263391], the viability at 28.5 h, 10 µM amounted to 107%.
Same read-out and setting: in the case of `CC1(C)CC(=O)C(C2(O)C(=O)Nc3ccc(Br)cc32)CO1` (centres unmarked) [CBK263410] it was 92.3%.
